Results published in patent US20230073781A1, “Systemic administration of peptides for the treatment of spinal cord injury and/or for remyelination” (AXOLTIS PHARMA, priority 2019, published 2023).
Where a SMILES comes first, the peptide text is derived from it. Bridges are numbered along the chain shown (N, C = ends).

Legend:
[1] = Preliminary PK study in rat; assay type: in vivo; conditions: slow bolus IV injection of 49 mg/kg of NX210
Procedure: Therefore, NX210 PK in animals is followed by the measurement of its cyclic form NX218. First a preliminary PK study in rat was performed in order to validate the method for detecting NX218 in plasma then translated to monkey by performing a more robust PK study with repeated experiments. All PK studies were performed with NaCl 0.9% as vehicle.

[2] = In vitro conversion in rat plasma; assay type: in vitro ADME; conditions: preliminary

| Structure (SMILES) | plasma concentration of NX218 over time [1] | conversion by oxidation in rat plasma [2] |
| --- | --- | --- |
| N=C(N)NCCC[C@@H]1NC(=O)[C@H](CO)NC(=O)[C@@H](NC(=O)[C@H](CO)NC(=O)[C@H](CO)NC(=O)[C@H](Cc2c[nH]c3ccccc23)NC(=O)CNC(=O)[C@H](CO)NC(=O)[C@@H](N)Cc2c[nH]c3ccccc23)CSSC[C@@H](C(=O)NCC(=O)O)NC(=O)[C@H](CO)NC1=O [NX218] (H-WSGWSSCSRSCG-OH; disulfide 7-11) | impossible to quantify from 3 hours | – |
| N=C(N)NCCC[C@H](NC(=O)[C@H](CO)NC(=O)[C@H](CS)NC(=O)[C@H](CO)NC(=O)[C@H](CO)NC(=O)[C@H](Cc1c[nH]c2ccccc12)NC(=O)CNC(=O)[C@H](CO)NC(=O)[C@@H](N)Cc1c[nH]c2ccccc12)C(=O)N[C@@H](CO)C(=O)N[C@@H](CS)C(=O)NCC(=O)O [NX210, W-S-G-W-S-S-C-S-R-S-C-G] (H-WSGWSSCSRSCG-OH) | – | rapidly converted into NX218 |
